The values below come from patent US20240025912A1 (Merck Sharp & Dohme LLC, priority 2022, published 2024).

As usually defined, the EC50 is the concentration that produces a half-maximal response.

Structures are written as SMILES.

In this assay the target is GST-RIPK1 (recombinant GST-RIPK1 kinase domain (residues 1-327)) (Homo sapiens (Human), UniProt Q13546). Put plainly: RIPK1-ADP-Glo Enzymatic Assay. The format is biochemical. The conditions noted are these: 25 nM GST-RIPK1, 300 μM ATP, 3 μM dephosphorylated-MBP, 30 min pre-incubation, 150 min reaction. As to the method:
The enzymatic activity of RIPK1 is measured using an assay derived from ADP-Glo kit (TMPromega), which provides a luminescent-based ADP detection system. Specifically, the ADP generated by RIPK1 kinase is proportionally detected as luminescent signals in a homogenous fashion. In this context, the assessment of the inhibitory effect of small molecules (EC50) is measured by the effectiveness of the compounds to inhibit the ATP to ADP conversion by RIPK1.
In this assay, the potency (EC50) of each compound was determined from a ten-point (1:3 serial dilution; top compound concentration of 100000 nM) titration curve using the following outlined procedure. To each well of a white ProxiPlus 384 well-plate, 30 nL of compound (1% DMSO in final assay volume of 3 μL) was dispensed, followed by the addition of 2 μL of 1× assay buffer (25 mM Hepes 7.3, 20 mM MgCl2, 50 mM NaCl, 1 mM DTT, 0.005% Tween20, and 0.02% BSA) containing 37.5 nM of GST-RIPK1 (recombinant GST-RIPK1 kinase domain (residues 1-327) enzyme produced from baculovirus-transfected Sf21 cells: MW 62 kDa). Plates were placed in an ambient temperature humidified chamber for a 30 min pre-incubation with compound. Subsequently, each reaction was initiated by the addition of 1 μL 1× assay buffer containing 900 μM ATP and 3 μM dephosphorylated-MBP substrate. The final reaction in each well of 3 μL consists of 25 nM of GST-RIPK1, 300 μM ATP, and 3 μM dephosphorylated-MBP. Kinase reactions were allowed to proceed for 150 min prior to adding ADP-Glo reagents per Promega's outlined kit protocol. Dose-response curves were generated by plotting percent effect (% product conversion; Y-axis) vs. Log 10 compound concentrations (X-axis). EC50 values were calculated using a non-linear regression, four-parameters sigmoidal dose-response model.

Sequence of GST-RIPK1 (recombinant GST-RIPK1 kinase domain (residues 1-327)) (Q13546 1-327): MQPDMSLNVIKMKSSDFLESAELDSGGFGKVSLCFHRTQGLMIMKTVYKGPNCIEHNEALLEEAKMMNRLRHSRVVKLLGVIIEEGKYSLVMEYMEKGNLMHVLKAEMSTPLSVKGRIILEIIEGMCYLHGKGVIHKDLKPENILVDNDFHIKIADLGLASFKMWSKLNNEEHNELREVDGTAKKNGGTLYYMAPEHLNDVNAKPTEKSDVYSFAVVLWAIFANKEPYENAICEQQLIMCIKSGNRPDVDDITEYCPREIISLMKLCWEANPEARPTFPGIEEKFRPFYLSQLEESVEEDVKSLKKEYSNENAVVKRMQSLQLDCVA

Take `CC(F)(F)C12CC(n3nc4n(c3=O)[C@H](c3cccc(F)c3)CC4)(C1)C2` [Compound 1-34, (5S)-2-[3-(1,1-difluoroethyl)bicyclo[1.1.1]pentan-1-yl]-5-(3-fluorophenyl)-2,5,6,7-tetrahydro-3H-pyrrolo[2,1-c][1,2,4]triazol-3-one]: the EC50 is 26.9 nM.

Turning to `N#CC12CCC(n3nc4n(c3=O)[C@H](c3cc(F)cc(F)c3)CC4)(C1)C2` [Compound 1-35, 4-[(5S)-5-(3,5-difluorophenyl)-3-oxo-6,7-dihydro-3H-pyrrolo[2,1-c][1,2,4]triazol-2(5H)-yl]bicyclo[2.1.1]hexane-1-carbonitrile], the EC50 was 49.7 nM. The result for `COC(=O)C12CC(n3nc4n(c3=O)[C@H](c3cc(F)cc(F)c3)CC4)(C1)C2(F)F` [Compound 1-36, methyl 3-[(5S)-5-(3,5-difluorophenyl)-3-oxo-6,7-dihydro-3H-pyrrolo[2,1-c][1,2,4]triazol-2(5H)-yl]-2,2-difluorobicyclo[1.1.1]pentane-1-carboxylate] reads 61.9 nM. With `O=c1n(C23CC(F)(C2)C3)nc2n1[C@H](c1ccc(F)cc1)CC2` [Compound 1-37, (5S)-2-(3-fluorobicyclo[1.1.1]pentan-1-yl)-5-(4-fluorophenyl)-2,5,6,7-tetrahydro-3H-pyrrolo[2,1-c][1,2,4]triazol-3-one], the EC50 came to 65.6 nM. Next, `N#CC12CC(n3nc4n(c3=O)[C@H](c3ccc(F)cc3)CC4)(C1)C2` [Compound 1-38, 3-[(5S)-5-(4-fluorophenyl)-3-oxo-6,7-dihydro-3H-pyrrolo[2,1-c][1,2,4]triazol-2(5H)-yl]bicyclo[1.1.1]pentane-1-carbonitrile]: 160 nM; `N#CC12CCC(n3nc4n(c3=O)[C@H](c3ccccc3)CC4)(C1)C2` [Compound 1-39, 4-[(5S)-3-oxo-5-phenyl-6,7-dihydro-3H-pyrrolo[2,1-c][1,2,4]triazol-2(5H)-yl]bicyclo[2.1.1]hexane-1-carbonitrile]: 47 nM; `O=c1n(C23CC(F)(C2)C3)nc2n1[C@H](c1c(F)cccc1F)CC2` [Compound 1-40, (S)-5-(2,6-difluorophenyl)-2-(3-fluorobicyclo[1.1.1]pentan-1-yl)-2,5,6,7-tetrahydro-3H-pyrrolo[2,1-c][1,2,4]triazol-3-one]: 34 nM.

As to `O=c1n(C23CC(Cl)(C2)C3)nc2n1[C@H](c1ccccc1)CC2` [Compound 1-41, (5S)-2-(3-chlorobicyclo[1.1.1]pentan-1-yl)-5-phenyl-2,5,6,7-tetrahydro-3H-pyrrolo[2,1-c][1,2,4]triazol-3-one], the EC50 amounted to 32.9 nM. Next, `O=c1n(C23CC(Cl)(C2)C3)nc2n1[C@H](c1cccc(F)c1)CC2` [Compound 1-42, (S)-2-(3-chlorobicyclo[1.1.1]pentan-1-yl)-5-(3-fluorophenyl)-2,5,6,7-tetrahydro-3H-pyrrolo[2,1-c][1,2,4]triazol-3-one]: 18.5 nM; `N#CC12CC(n3nc4n(c3=O)[C@H](c3c(F)cccc3F)CC4)(C1)C2` [Compound 1-43, (S)-3-(5-(2,6-difluorophenyl)-3-oxo-6,7-dihydro-3H-pyrrolo[2,1-c][1,2,4]triazol-2(5H)-yl)bicyclo[1.1.1]pentane-1-carbonitrile]: 57.7 nM; `N#CC12CC(n3nc4n(c3=O)[C@H](c3ccc(F)c(F)c3)CC4)(C1)C2` [Compound 1-44, (S)-3-(5-(3,4-difluorophenyl)-3-oxo-6,7-dihydro-3H-pyrrolo[2,1-c][1,2,4]triazol-2(5H)-yl)bicyclo[1.1.1]pentane-1-carbonitrile]: 67.7 nM. As to `O=c1n(C23CC(F)(C2)C3)nc2n1[C@H](c1ccc(Cl)cc1)CC2` [Compound 1-45, (S)-5-(4-chlorophenyl)-2-(3-fluorobicyclo[1.1.1]pentan-1-yl)-2,5,6,7-tetrahydro-3H-pyrrolo[2,1-c][1,2,4]triazol-3-one], the EC50 is 37.7 nM.

For `N#CC12CC(n3nc4n(c3=O)[C@H](c3ccc(Cl)cc3)CC4)(C1)C2` [Compound 1-46, (S)-3-(5-(4-chlorophenyl)-3-oxo-6,7-dihydro-3H-pyrrolo[2,1-c][1,2,4]triazol-2(5H)-yl)bicyclo[1.1.1]pentane-1-carbonitrile], the EC50 turned out to be 44 nM. `N#CC12CC(n3nc4n(c3=O)[C@H](c3ccc(F)cc3F)CC4)(C1)C2` [Compound 1-47, (S)-3-(5-(2,4-difluorophenyl)-3-oxo-6,7-dihydro-3H-pyrrolo[2,1-c][1,2,4]triazol-2(5H)-yl)bicyclo[1.1.1]pentane-1-carbonitrile]: the EC50 came out at 86.4 nM. The result for `O=c1n(C23CC(F)(C2)C3)nc2n1[C@H](c1ccc(F)cc1F)CC2` [Compound 1-48, (S)-5-(2,4-difluorophenyl)-2-(3-fluorobicyclo[1.1.1]pentan-1-yl)-2,5,6,7-tetrahydro-3H-pyrrolo[2,1-c][1,2,4]triazol-3-one] reads 54.4 nM.

In the case of `N#CC12CC(n3nc4n(c3=O)[C@H](c3cccc(C(F)(F)F)c3)CC4)(C1)C2` [Compound 1-49, (S)-3-(3-oxo-5-(3-(trifluoromethyl)phenyl)-6,7-dihydro-3H-pyrrolo[2,1-c][1,2,4]triazol-2(5H)-yl)bicyclo[1.1.1]pentane-1-carbonitrile], the EC50 was 874 nM. In the case of `N#CC12CC(n3nc4n(c3=O)[C@H](c3ccc(C(F)(F)F)cc3)CC4)(C1)C2` [Compound 1-50, (S)-3-(3-oxo-5-(4-(trifluoromethyl)phenyl)-6,7-dihydro-3H-pyrrolo[2,1-c][1,2,4]triazol-2(5H)-yl)bicyclo[1.1.1]pentane-1-carbonitrile], the EC50 was found to be 250 nM. As for `Cc1c(F)cc([C@@H]2CCc3nn(C45CC(C#N)(C4)C5)c(=O)n32)cc1F` [Compound 1-51, (S)-3-(5-(3,5-difluoro-4-methylphenyl)-3-oxo-6,7-dihydro-3H-pyrrolo[2,1-c][1,2,4]triazol-2(5H)-yl)bicyclo[1.1.1]pentane-1-carbonitrile], the EC50 was 16.1 nM. Regarding `N#CC12CC(n3nc4n(c3=O)[C@H](c3cc(F)cc(F)c3)CCC4)(C1)C2` [Compound 1-53, (S)-3-(5-(3,5-difluorophenyl)-3-oxo-5,6,7,8-tetrahydro-[1,2,4]triazolo[4,3-a]pyridin-2(3H)-yl)bicyclo[1.1.1]pentane-1-carbonitrile], the EC50 amounted to 109 nM.

As to `Cc1c(F)cc([C@@H]2CCc3nn(C45CC(F)(C4)C5)c(=O)n32)cc1F` [Compound 1-56, (S)-5-(3,5-difluoro-4-methylphenyl)-2-(3-fluorobicyclo[1.1.1]pentan-1-yl)-2,5,6,7-tetrahydro-3H-pyrrolo[2,1-c][1,2,4]triazol-3-one], the 50% effective concentration (EC50) was found to be 15.8 nM. The result for `O=c1n(C23CC(C(F)F)(C2)C3)nc2n1[C@H](c1cncc(F)c1)CC2` [Compound 1-57, (S)-2-(3-(difluoromethyl)bicyclo[1.1.1]pentan-1-yl)-5-(5-fluoropyridin-3-yl)-2,5,6,7-tetrahydro-3H-pyrrolo[2,1-c][1,2,4]triazol-3-one] reads 369 nM; that for `O=c1n(C23CC(F)(C2)C3)nc2n1[C@H](c1cc(F)cc(F)c1)CCC2` [Compound 1-58, (S)-5-(3,5-difluorophenyl)-2-(3-fluorobicyclo[1.1.1]pentan-1-yl)-5,6,7,8-tetrahydro-[1,2,4]triazolo[4,3-a]pyridin-3(2H)-one], 45.9 nM. As to `O=c1n(C23CC(Cl)(C2)C3)nc2n1[C@H](c1cnccn1)CC2` [Compound 1-59, (S)-2-(3-chlorobicyclo[1.1.1]pentan-1-yl)-5-(pyrazin-2-yl)-2,5,6,7-tetrahydro-3H-pyrrolo[2,1-c][1,2,4]triazol-3-one], the EC50 is 53.9 nM.

For the compound `N#CC12CCC(n3nc4n(c3=O)[C@H](c3cnccn3)CC4)(C1)C2` [Compound 1-60, (S)-4-(3-oxo-5-(pyrazin-2-yl)-6,7-dihydro-3H-pyrrolo[2,1-c][1,2,4]triazol-2(5H)-yl)bicyclo[2.1.1]hexane-1-carbonitrile], the EC50 was 512 nM. Next, `O=c1n(C23CCC(C2)C3)nc2n1[C@H](c1cnccn1)CC2` [Compound 1-61, (S)-2-(bicyclo[2.1.1]hexan-1-yl)-5-(pyrazin-2-yl)-2,5,6,7-tetrahydro-3H-pyrrolo[2,1-c][1,2,4]triazol-3-one]: 696 nM; `N#CC12CC(n3nc4n(c3=O)[C@H](c3cccc(Cl)c3)CC4)(C1)C2` [Compound 1-62, (S)-3-(5-(3-chlorophenyl)-3-oxo-6,7-dihydro-3H-pyrrolo[2,1-c][1,2,4]triazol-2(5H)-yl)bicyclo[1.1.1]pentane-1-carbonitrile]: 98.6 nM; `O=c1n(C23CC(F)(C2)C3)nc2n1[C@H](c1cccc(Cl)c1)CC2` [Compound 1-63, (S)-5-(3-chlorophenyl)-2-(3-fluorobicyclo[1.1.1]pentan-1-yl)-2,5,6,7-tetrahydro-3H-pyrrolo[2,1-c][1,2,4]triazol-3-one]: 68.1 nM.
